Assay results: patent US9491935B2, “Animal models of neurological disorders” (Ann & Robert H. Lurie Children's Hospital of Chicago, priority 2009, dated 2016)

Experiments:
[1] = administered 3 hours prior to cocaine; cited from earlier work
[2] = test system: CA1 pyramidal neurons; test: IPSC recordings in CA1 pyramidal cells of hippocampal slices; type: cell-based, mouse; conditions: 0.25 mM in recording ACSF; for spontaneous IPSCs (sIPSCs, mIPSCs): Evf2TS/TS and wild-type mice; for evoked IPSCs: wild-type and Evf2TS/TS mice
Experimental: Transverse hippocampal slices ([…]) were prepared from 3-5-month-old Evf2^TS/TS mice. Slices were cut in ice-cold (˜4° C.) oxygenated ACSF and then were allowed to recover for 1-2 h before being transferred to the recording chamber where they were continuously superfused with solution heated to 32-34° C. and saturated with 95% O2/5% CO2. The standard extracellular solution contained 124 mM NaCl, 3 mM KCl, 1.25 mM KH2PO4, 2.0 mM CaCl2, 1.3 mM MgCl2, 26 mM NaHCO3 and 10 mM glucose. The concentration of MgCl2 was raised to 2.0 mM and that of CaCl2 decreased to 1.4 mM in the slicing solution. […].
Somatic whole-cell recordings were obtained from CA1 pyramidal neurons under visual guidance using infrared differential interference contrast microscopy. Patch pipettes were pulled from borosilicate glass capillary tubing (A-M Systems). Internal solution for the patch pipettes contained 120 mM cesium methane sulphonate, 10 mM CsCl, 5 mM NaCl, 10 mM HEPES, 10 mM EGTA, 5 mM TEA-Cl, 4 mM Mg-ATP, 0.3 mM GTP and 5 mM QX-314 (pH 7.3-7.4), adjusted with CsOH, osmolarity 290±10 mOsm.
Voltage-clamp recordings were performed using Axopatch-200B (Axon Instruments). In all of our recordings, series resistance was <22 MΩ and was compensated at 80%. The recorded signal was low-pass filtered at 5 kHz and digitized at 10 kHz with a PCI-MIO-16E-4 board (National Instruments). All data were stored on a PC computer with custom software using C++ Builder 5.0 (Borland) and a NI DAQ 6.5 driver (National Instruments).
Evoked IPSCs were elicited at 0.1-0.07 Hz with a bipolar Pt/Ir electrode (2×25 μn) positioned on the stratum radiatum within 150 μm of the cell being recorded (Schaffer collateral-commisural fibers location site). At the beginning of each experiment, stimulus intensity was adjusted to evoke […] with amplitude of 0.4-0.2 nA. Evoked IPSCs were recorded at holding potential from −70 mV to +20 mV with 10-mV voltage steps after blocking EPSCs with a solution containing CNQX and D-AP5.
Spontaneous IPSCs were analyzed using MiniAnalysis 6.0.3 software (Synaptosoft). All events were manually selected on the basis of their kinetics. Between 250 and 450 individual events were analyzed for each cell. Post-recording analyses of evoked IPSPs were carried out using Clampfit 10 (Axon Instruments). All statistical values were evaluated with Origin 8 (MicroCal Software). Values are presented as mean±s.e.m. Statistical differences were established at P<0.05 using the Student t test, unless otherwise indicated.

| Molecule | locomotor response to cocaine [1] | spontaneous IPSCs (sIPSCs, mIPSCs) [2] | spontaneous IPSCs (sIPSCs, mIPSCs) ([2]; listed as picrotoxin) | evoked IPSCs [2] | evoked IPSCs ([2]; listed as picrotoxin) |
| --- | --- | --- | --- | --- | --- |
| C=CC(N)CCC(=O)O (centres unmarked) [GVG] | can attenuate locomotor response | – | – | – | – |
| Picrotoxin | – | blocked all IPSC activity | abolished | blocked evoked IPSCs | abolished |
